Assay results: US20180036292A1, “PHARMACEUTICAL COMPOSITIONS FOR THE TREATMENT OF BACTERIAL INFECTIONS” (WOCKHARDT LIMITED, priority 2016, published 2018)
Where two headings read alike, the source gives them in different places.

Assays:
[1] = Study 2: Phase 1 multiple ascending dose, drug concentrations in plasma and polymorphonuclear leukocytes (PMN); type: in vivo, human; conditions: healthy subjects, 600, 800 and 1000 mg once daily day 1 to day 7; sampling day 1 and day 7
Protocol: A Phase 1, randomised, double-blind, single center, placebo controlled sequential cohort study in a maximum of 3 cohort of 10 healthy male and/or female subject each was conducted. Subjects received ascending multiple doses of compound of Formula (I) (600, 800 and 1000 mg) or matching placebo once daily on day 1 to day 7. Blood sampling was performed on day 1 and day 7 to determine the drug concentrations in plasma and polymorphonuclear leukocytes (PMN) (FIG. 2 and FIG. 3). […] Blood sampling was also undertaken at intermittent days to determine the number of doses required to attain the steady state.

[2] = Study 3: concentrations in plasma, epithelial lining fluid (ELF) and alveolar macrophages (AM) after 800 mg once daily for three days; type: in vivo, human; conditions: for Kp / Kp at 3 h / Kp at 6 h / Kp at 9 h / Kp at 12 h / Kp at 24 h / Kp at 48 h: both sexes, human; for Kp: oral, range over the 48-hour period after drug administration, 800 mg once daily for 3 days; for Kp at 3 h / Kp at 6 h / Kp at 9 h / Kp at 12 h / Kp at 24 h / Kp at 48 h: healthy subjects, 800 mg oral once daily for 3 days, mean ± SD; for Kp at 3 h: sampling time 3 hr after third dose; for Kp at 6 h: sampling time 6 hr after third dose; for Kp at 9 h: sampling time 9 hr after third dose; for Kp at 12 h: sampling time 12 hr after third dose; for Kp at 24 h: sampling time 24 hr after third dose; for Kp at 48 h: sampling time 48 hr after third dose
Protocol: Healthy male and female subjects 18 years of age or older who met the study entry criteria were enrolled into the pharmacokinetic study. Each subject received 800 mg (2 tablets of 400 mg) of compound of Formula (I) administered once daily for three days, with 240 ml of drinking water at a consistent time within two hours after a standard meal and direct observation at the study site. Blood samples were collected to measure concentration of compound of Formula (I) in plasma at 3, 6, 9, 12, 24, and 48 hours following the third dose of compound of Formula (I). Similarly, bronchoscopy was done to measure concentration of compound of Formula (I) in epithelial lining fluid (ELF) and alveolar macrophages (AM) 3, 6, 9, 12, 24, and 48 hours following the third dose of compound of Formula (I). The mean (±SD) concentrations of compound of Formula (I) in plasma (total), ELF, and AM at the bronchopulmonary sampling times are illustrated in FIG. 4. […] Table 1 gives the mean (±SD) ratios of compound of Formula (I) in ELF or AM to the simultaneous total plasma concentrations. The mean ratios of ELF and AM to simultaneous total plasma concentration for compound of Formula (I) during the 48-hour period after drug administration ranged from 10 to 30 and 270 to 800, respectively.

[3] = alveolar macrophages (AM) / plasma (total), read-out: AM to Plasma (Total) concentration ratio
[4] = epithelial lining fluid (ELF) / plasma (total), read-out: ELF to Plasma (Total) concentration ratio

- Kp ([2]; alveolar macrophages (AM) / plasma (total), read-out: mean ratio of AM to simultaneous total plasma concentration): 270 to 800
- Kp at 3 h [2, 3]: 274 ± 187
- Kp at 6 h [2, 3]: 378 ± 172
- Kp at 9 h [2, 3]: 383 ± 260
- Kp at 12 h [2, 3]: 791 ± 614
- Kp at 24 h [2, 3]: 486 ± 193
- Kp at 48 h [2, 3]: 428 ± 189
- Kp ([2]; epithelial lining fluid (ELF) / plasma (total), read-out: mean ratio of ELF to simultaneous total plasma concentration): 10 to 30
- Kp at 3 h [2, 4]: 17 ± 12
- Kp at 6 h [2, 4]: 14.5 ± 8.8
- Kp at 9 h [2, 4]: 10.4 ± 6.5
- Kp at 12 h [2, 4]: 12.4 ± 9.3
- Kp at 24 h [2, 4]: 17.6 ± 6.2
- Kp at 48 h [2, 4]: 27.2 ± 6.5
SMILES: CC[C@@H]1OC(=O)[C@H](C)C(=O)[C@H](C)[C@@H](OC2O[C@H](C)C[C@H](N(C)C)[C@H]2O)[C@](C)(OC)C[C@@H](C)C(=O)[C@H](C)[C@H]2[C@H](/C(N)=N/O[C@@H](C)c3nnc(-c4ccccn4)s3)C(=O)O[C@@]21C (stereo partly shown) [compound of Formula (I)]
- accumulation in polymorphonuclear leukocytes (PMN) in comparison to plasma [1]: accumulated more in polymorphonuclear leukocytes (PMN) in comparison to plasma
- concentrations in ELF and AM compared with simultaneous plasma concentrations ([2]; oral 800 mg, throughout the 48-hour period after 3 days of once-daily dosing): significantly higher in ELF and AM than simultaneous plasma concentrations
